target: T1, human CaV1.2 (Homo sapiens, UniProt Q13936); assay: QPatch channel biophysics assay (channel gating, V1/2 of activation, inactivation) in CaV1.2-HEK293(AUX) cells; format: cell-based; conditions: Table 9; shift of half-way channel activation voltage V1/2
T1 construct: expressed in transfected cells; host or cells: Flp-In 293 T-Rex (HEK293), monoclonal CaV1.2-HEK293(AUX) clone 2-19B; doxycycline-induced auxiliary subunits
Description: The monoclonal CaV1.2-HEK293(AUX) cell line constitutively expresses human CaV1.2 alpha1C (α1C) subunit (CACNA1C) and has doxycycline-inducible expression of the alpha2delta (α2Δ2) auxiliary subunit (CACNA2D2) and beta2 (02) auxiliary subunit (CACNB2). To generate the cell line, expression vectors pcDNA5.0/FRT-TO-CACNA2D2-FCS-P2A-CACNB2 and pCMV6-entry-CACNA1C were established via gene synthesis and cloning. Here, pcDNA5.0/FRT-TO plasmid is from Invitrogen, pCMV6-entry is from Origene, FCS stands for Furin Cleavage Site, P2A is a peptide self-cleavage sequence derived from porcine teschovirus-1, and FRT is the Flippase recognition target site. Next, parental line Flp-In™ 293 T-Rex (Invitrogen) was transfected with pcDNA5.0/FRT-TO-CACNA2D2-FCS-P2A-CACNB2 and Flippase vector pOG44 (Invitrogen) to establish targeted integration of the CACNA2D2-FCS-P2A-CACNB2 expression cassette into the pre-engineered FRT site in Flp-In™ 293 T-Rex. This intermediate cell line was then transfected with pCMV6-entry-CACNA1C to establish stable CACNA1C expression. Clonal isolation was achieved under Neomycin selection. A cell clone (2-19B) with good voltage-dependent Barium current (see electrophysiology methods below) was selected for characterization of CaV1.2 activators.
24 hours prior an electrophysiology experiment, doxycycline (1 μg/ml) was added to the growth medium (Table 6), and 25 μM of verapamil was co-applied to prevent calcium influx triggered cell death. Cell confluency should reach 70%-80% right before the experiment. To harvest cells (from a T175 cm^2 flask as an example), growth media were removed completely, and the cells were rinsed with 10 mL of D-PBS. D-PBS was aspirated, and 10 mL of Detachin (Genlantis) was added and the plate was placed in a 37° C. incubator for 10 minutes. Detached cells were placed into a 15 mL conical tube and spun at 1000 rpm for 2 minutes. Supernatant was removed, and cells were re-suspended in QPatch complete media (Table 7) to desired cell density of 1.5-3 million cells per QPatch run. Each experimental run uses 1.5 mL of cells.
The cells suspension was taken to the Sophion QPatch platform that uses whole-cell voltage clamp to measure barium currents conducted through CaV1.2 on single-hole QPlates. Extracellular and intracellular patch clamp solutions are described in Tables 7 and 8, respectively. A dose-response assay protocol was used to determine the maximal fold change of peak inward current (Emax) and potency (EC50) of each compound. The protocol had eight liquid periods. The first liquid period was to stabilize current amplitude, which was monitored using repetitive 200-ms voltage pulses stepping from −80 mV to 0 mV. The second liquid period was to determine baseline current amplitude in the presence of vehicle control, using a single 20-ms voltage pulse stepping from −80 mV to 0 mV. The third through eighth liquid periods were used to ascertain a 6-dose response to compound treatments, also using single 20-ms voltage pulses stepping from −80 mV to 0 mV. The EC50 was generated using the following equation Iconcentration=Ibase+(Ifull−Ibase)*c^n/(XC50^n+c^n), where c is the concentration and n is the Hill coefficient constant. Ifull is the maximal current achievable, and Ibase is 0. A channel biophysics assay protocol was used to determine channel gating properties including current-voltage relationship (IV curves), half-way channel activation voltage (V1/2), rate of channel inactivation (tau), and amplitude of tail current. Among these, V1/2 was derived from fitting equation G(V)=Gvmin+(Gvmax−Gvmin)/(1+exp(−(V−V½)/Vslope)), where G stands for conductance, Gvmin equals 0, Gvmax is the maximal conductance, and Vslope is a slope factor. G(V) was pre-calculated from equation G(V)=I(V)/(V−0.06), for each experimentally applied depolarization potential (V) and the corresponding current amplitude (I(V)), and 0.06 in the equation was the experimentally determined reversal potential in volts. […]

T1 sequence (Q13936 1-2138 isoform Q13936-23): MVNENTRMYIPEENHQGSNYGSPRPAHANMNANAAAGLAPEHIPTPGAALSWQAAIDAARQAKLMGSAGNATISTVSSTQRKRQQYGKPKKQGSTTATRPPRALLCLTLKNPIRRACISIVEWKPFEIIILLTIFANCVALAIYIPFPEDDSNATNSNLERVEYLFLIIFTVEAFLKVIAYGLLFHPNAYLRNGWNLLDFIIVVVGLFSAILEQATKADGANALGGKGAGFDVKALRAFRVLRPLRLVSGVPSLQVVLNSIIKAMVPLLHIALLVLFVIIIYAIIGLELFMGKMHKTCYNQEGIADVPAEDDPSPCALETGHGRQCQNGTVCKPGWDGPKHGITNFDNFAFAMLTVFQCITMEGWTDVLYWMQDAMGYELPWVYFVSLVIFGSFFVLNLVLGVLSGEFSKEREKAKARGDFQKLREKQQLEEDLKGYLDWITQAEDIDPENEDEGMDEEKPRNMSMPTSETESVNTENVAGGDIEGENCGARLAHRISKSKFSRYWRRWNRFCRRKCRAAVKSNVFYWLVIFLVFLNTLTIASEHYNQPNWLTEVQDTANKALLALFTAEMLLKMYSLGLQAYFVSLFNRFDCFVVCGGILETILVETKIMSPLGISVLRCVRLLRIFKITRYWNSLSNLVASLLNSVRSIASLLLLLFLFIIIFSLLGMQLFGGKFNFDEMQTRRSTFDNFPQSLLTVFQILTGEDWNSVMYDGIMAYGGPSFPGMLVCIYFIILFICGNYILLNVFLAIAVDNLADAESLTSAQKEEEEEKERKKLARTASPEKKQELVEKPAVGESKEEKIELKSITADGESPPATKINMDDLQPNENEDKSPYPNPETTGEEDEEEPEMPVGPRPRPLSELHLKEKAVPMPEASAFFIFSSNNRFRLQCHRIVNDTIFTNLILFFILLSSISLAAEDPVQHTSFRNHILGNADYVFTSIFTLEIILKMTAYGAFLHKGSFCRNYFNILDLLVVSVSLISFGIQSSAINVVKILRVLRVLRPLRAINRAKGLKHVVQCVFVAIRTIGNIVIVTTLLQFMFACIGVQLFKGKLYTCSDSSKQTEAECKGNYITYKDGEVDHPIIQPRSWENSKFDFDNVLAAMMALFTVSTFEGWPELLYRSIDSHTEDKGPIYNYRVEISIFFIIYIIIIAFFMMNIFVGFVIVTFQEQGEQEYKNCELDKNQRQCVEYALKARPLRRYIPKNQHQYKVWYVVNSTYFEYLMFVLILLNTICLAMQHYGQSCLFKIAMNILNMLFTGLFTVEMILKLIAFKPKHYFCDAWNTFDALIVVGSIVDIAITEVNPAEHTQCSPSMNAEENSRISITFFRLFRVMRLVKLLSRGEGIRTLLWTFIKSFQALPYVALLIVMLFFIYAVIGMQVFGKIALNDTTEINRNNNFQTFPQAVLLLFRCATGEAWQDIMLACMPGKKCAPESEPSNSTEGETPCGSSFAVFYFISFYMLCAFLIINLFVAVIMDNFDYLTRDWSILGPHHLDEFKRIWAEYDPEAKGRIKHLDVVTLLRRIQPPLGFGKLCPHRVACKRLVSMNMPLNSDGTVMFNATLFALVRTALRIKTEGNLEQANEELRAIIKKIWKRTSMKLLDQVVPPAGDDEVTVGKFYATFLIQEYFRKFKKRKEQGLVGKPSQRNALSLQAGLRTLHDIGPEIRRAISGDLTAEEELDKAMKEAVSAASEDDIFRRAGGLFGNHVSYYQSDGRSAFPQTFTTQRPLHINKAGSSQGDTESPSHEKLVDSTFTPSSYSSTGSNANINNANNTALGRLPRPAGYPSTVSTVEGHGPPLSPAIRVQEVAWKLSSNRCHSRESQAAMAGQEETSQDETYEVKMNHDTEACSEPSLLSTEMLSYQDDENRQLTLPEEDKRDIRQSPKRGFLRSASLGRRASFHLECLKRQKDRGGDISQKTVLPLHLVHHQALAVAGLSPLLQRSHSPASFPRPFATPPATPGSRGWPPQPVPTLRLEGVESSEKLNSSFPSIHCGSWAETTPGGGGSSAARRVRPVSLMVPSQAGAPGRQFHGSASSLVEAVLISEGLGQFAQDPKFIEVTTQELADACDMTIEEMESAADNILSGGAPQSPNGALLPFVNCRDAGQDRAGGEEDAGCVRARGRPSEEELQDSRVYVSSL
T1 sequence (Q9NY47 19-1001 partner limits assumed): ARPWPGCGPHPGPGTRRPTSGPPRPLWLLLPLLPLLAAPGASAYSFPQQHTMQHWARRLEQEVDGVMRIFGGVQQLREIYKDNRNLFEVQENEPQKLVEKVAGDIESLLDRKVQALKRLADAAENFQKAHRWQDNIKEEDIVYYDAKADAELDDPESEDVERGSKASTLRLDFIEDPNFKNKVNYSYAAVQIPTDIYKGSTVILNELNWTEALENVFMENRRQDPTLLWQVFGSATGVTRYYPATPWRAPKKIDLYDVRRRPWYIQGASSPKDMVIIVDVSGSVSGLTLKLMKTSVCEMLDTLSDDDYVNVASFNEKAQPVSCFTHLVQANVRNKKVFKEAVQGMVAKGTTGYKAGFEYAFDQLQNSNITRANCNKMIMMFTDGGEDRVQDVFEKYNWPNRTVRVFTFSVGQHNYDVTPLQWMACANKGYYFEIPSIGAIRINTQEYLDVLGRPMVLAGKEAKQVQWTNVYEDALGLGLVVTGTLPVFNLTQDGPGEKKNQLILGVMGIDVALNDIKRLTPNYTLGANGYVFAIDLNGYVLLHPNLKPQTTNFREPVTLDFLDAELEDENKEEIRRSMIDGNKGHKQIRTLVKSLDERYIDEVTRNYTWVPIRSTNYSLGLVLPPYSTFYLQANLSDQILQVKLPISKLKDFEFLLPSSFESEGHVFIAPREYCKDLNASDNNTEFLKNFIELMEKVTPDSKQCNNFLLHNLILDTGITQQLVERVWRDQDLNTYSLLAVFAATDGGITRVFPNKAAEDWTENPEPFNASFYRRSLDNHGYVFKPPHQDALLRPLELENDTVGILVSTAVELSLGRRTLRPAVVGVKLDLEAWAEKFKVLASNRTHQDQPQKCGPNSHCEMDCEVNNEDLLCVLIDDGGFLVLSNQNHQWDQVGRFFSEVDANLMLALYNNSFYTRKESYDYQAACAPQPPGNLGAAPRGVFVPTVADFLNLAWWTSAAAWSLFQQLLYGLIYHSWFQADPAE
T1 sequence (Q9NY47 1002-1150 partner limits assumed): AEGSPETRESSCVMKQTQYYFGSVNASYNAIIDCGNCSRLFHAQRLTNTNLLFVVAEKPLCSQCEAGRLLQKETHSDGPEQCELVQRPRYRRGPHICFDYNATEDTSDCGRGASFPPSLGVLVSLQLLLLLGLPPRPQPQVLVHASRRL
T1 sequence (Q08289 whole entry partner): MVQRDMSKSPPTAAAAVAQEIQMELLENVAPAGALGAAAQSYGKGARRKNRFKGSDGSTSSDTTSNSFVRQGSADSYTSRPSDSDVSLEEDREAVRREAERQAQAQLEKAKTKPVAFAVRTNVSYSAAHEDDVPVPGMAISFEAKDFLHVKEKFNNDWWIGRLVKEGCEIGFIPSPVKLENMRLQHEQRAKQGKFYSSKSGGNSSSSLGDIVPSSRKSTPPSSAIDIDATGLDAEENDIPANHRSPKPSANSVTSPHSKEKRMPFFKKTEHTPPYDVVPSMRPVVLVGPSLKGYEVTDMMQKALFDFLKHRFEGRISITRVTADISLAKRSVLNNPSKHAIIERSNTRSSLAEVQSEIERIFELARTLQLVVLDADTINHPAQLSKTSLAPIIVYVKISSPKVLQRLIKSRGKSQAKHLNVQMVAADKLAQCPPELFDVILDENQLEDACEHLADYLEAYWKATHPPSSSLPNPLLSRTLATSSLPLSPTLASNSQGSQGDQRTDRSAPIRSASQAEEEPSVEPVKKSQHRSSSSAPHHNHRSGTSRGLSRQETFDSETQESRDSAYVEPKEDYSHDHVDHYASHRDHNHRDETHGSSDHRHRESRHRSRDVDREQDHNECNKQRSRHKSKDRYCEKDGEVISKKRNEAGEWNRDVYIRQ

Point of comparison: `COC(=O)C1=C(CF)NC2=C(C(=O)OC2)[C@H]1c1cc(F)cc(F)c1[C@H](C)F` (single isomer, unassigned) [Example 5, methyl (R)-4-(3,5-difluoro-2-((R or S)-1-fluoroethyl)phenyl)-2-(fluoromethyl)-5-oxo-1,4,5,7-tetrahydrofuro[3,4-b]pyridine-3-carboxylate], “Biophysics voltage shift (mV)” value −4.6 mV. Against it:
- COC(=O)C1=C(CF)NC2=C(C(=O)CC2)[C@H]1c1cccc(F)c1C1CC1 (single isomer, unassigned) [Example 28] — lower, −7.2 mV
- COC(=O)C1=C(CF)NC2=C(C(=O)OC2)[C@H]1c1cc(F)ccc1C(F)(F)F (single isomer, unassigned) [Example 23] — lower, −6.2 mV
- COC(=O)C1=C(CF)NC2=C(C(=O)OC2)[C@H]1c1cccc(F)c1[C@@H](C)F (single isomer, unassigned) [Example 8] — lower, −5.4 mV
- COC(=O)C1=C(CF)NC2=C(C(=O)OC2)[C@H]1c1cc(F)cc(F)c1C1CC1 (single isomer, unassigned) [Example 13] — higher, −0.7 mV
- COC(=O)C1=C(CF)NC2=C(C(=O)OC2)[C@H]1c1cc(F)cc(F)c1C(F)(F)F (single isomer, unassigned) [Example 10] — higher, −2.3 mV
- COC(=O)C1=C(CF)NC2=C(C(=O)OC2)[C@H]1c1cccc(F)c1[C@H](F)CF (single isomer, unassigned) [Example 6] — lower, −6.3 mV
- COC(=O)C1=C(CF)NC2=C(C(=O)OC2)[C@H]1c1cccc(F)c1CC(F)F (single isomer, unassigned) [Example 11] — lower, −5.0 mV
- COC(=O)C1=C(CF)NC2=C(C(=O)OC2)[C@H]1c1cccc(F)c1C1CC1 (single isomer, unassigned) [Example 2] — higher, −4.5 mV
- COC(=O)C1=C(CF)NC2=C(C(=O)OC2)[C@H]1c1cc(F)cc(F)c1[C@H]1CC1(F)F (single isomer, unassigned) [Example 3, Methyl (R)-4-(2-((R or S)-2,2-difluorocyclopropyl)-3,5-difluorophenyl)-2-(fluoromethyl)-5-oxo-1,4,5,7-tetrahydrofuro[3,4-b]pyridine-3-carboxylate] — higher, 0.1 mV
- COC(=O)C1=C(CF)NC2=C(C(=O)OC2)[C@H]1c1cccc(F)c1C(F)F (single isomer, unassigned) [Example 15] — lower, −5.7 mV
- COC(=O)C1=C(CF)NC2=C(C(=O)OC2)[C@H]1c1cc(F)cc(F)c1[C@H]1CC1(F)F (single isomer, unassigned) [Example 4, Methyl (R)-4-(2-((R or S)-2,2-difluorocyclopropyl)-3,5-difluorophenyl)-2-(fluoromethyl)-5-oxo-1,4,5,7-tetrahydrofuro[3,4-b]pyridine-3-carboxylate] — higher, −4.4 mV
- COC(=O)C1=C(CF)NC2=C(C(=O)OC2)[C@H]1c1cc(F)cc(F)c1C(F)F (single isomer, unassigned) [Example 18] — lower, −5.2 mV
- COC(=O)C1=C(CF)NC2=C(C(=O)OC2)[C@H]1c1ccccc1OC(F)F (single isomer, unassigned) [Example 9] — higher, −4.5 mV
- COC(=O)C1=C(CF)NC2=C(C(=O)OC2)[C@H]1c1cccc(F)c1[C@H]1CC1(F)F (single isomer, unassigned) [Example 1, methyl (R)-4-(2-((R or S)-2,2-difluorocyclopropyl)-3-fluorophenyl)-2-(fluoromethyl)-5-oxo-1,4,5,7-tetrahydrofuro[3,4-b]pyridine-3-carboxylate] — lower, −5.9 mV
- COC(=O)C1=C(CF)NC2=C(C(=O)OC2)[C@H]1c1cc(F)cc(F)c1[C@H](F)CF (single isomer, unassigned) [Example 16, methyl (R)-4-(2-((R or S)-1,2-difluoroethyl)-3,5-difluorophenyl)-2-(fluoromethyl)-5-oxo-1,4,5,7-tetrahydrofuro[3,4-b]pyridine-3-carboxylate] — lower, −5.8 mV
- COC(=O)C1=C(CF)NC2=C(C(=O)CC2)[C@H]1c1cccc(F)c1[C@@H](F)CF (single isomer, unassigned) [Example 7, methyl (R)-4-(2-((R or S)-1,2-difluoroethyl)-3-fluorophenyl)-2-(fluoromethyl)-5-oxo-4,5,6,7-tetrahydro-1H-cyclopenta[b]pyridine-3-carboxylate] — lower, −6.3 mV
- COC(=O)C1=C(CF)NC2=C(C(=O)OC2)[C@H]1c1cccc(F)c1C(F)(F)F (single isomer, unassigned) [Example 17] — lower, −6.8 mV
